Here are results for 32 compounds from patent publication US11524968B2, “Heterocyclic compound as a protein kinase inhibitor” (HK inno.N Corporation, priority 2017, dated 2022).

Where only a bound is given, the exact number is not on record here.

Sequence of JAK1 (P23458 whole entry): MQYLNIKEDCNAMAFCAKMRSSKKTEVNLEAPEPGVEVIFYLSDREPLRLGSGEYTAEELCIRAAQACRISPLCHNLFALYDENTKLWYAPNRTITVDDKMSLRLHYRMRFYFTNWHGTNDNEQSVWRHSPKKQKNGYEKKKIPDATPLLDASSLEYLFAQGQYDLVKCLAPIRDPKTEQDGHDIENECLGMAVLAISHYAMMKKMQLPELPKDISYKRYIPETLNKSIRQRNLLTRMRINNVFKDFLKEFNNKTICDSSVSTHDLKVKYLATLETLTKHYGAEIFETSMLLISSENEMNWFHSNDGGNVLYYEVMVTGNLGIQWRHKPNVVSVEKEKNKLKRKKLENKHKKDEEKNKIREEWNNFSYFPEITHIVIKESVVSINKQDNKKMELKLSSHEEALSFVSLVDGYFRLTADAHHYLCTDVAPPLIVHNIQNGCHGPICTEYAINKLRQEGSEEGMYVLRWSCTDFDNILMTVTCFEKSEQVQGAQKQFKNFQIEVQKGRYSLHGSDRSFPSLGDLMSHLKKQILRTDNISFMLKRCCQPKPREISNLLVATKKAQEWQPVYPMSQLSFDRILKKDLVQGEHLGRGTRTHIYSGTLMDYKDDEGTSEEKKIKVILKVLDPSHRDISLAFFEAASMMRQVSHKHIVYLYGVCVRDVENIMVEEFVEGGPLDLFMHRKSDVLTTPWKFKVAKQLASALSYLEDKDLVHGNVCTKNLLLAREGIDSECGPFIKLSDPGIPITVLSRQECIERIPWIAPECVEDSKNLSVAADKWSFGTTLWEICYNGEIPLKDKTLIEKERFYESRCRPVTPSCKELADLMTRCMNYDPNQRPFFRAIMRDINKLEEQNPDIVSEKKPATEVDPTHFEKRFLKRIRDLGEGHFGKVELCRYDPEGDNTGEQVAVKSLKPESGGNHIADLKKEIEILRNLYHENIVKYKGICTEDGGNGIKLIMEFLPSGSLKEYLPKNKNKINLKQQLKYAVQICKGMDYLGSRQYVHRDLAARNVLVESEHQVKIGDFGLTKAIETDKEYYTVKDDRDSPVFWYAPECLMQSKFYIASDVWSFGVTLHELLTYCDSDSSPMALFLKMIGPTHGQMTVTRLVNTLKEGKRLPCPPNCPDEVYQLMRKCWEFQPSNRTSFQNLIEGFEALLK

The target of the assay is JAK1 (Homo sapiens (Human), UniProt P23458). Put plainly: Analysis of JAK1 activity inhibition ability (ADP-Glo Kinase Assay). The assay is classed as biochemical. Conditions: JAK1 enzyme, ADP-Glo luminescence, ATP 250 uM, IRS-itide substrate, 30° C. 40 minutes; read-out: IC50. A digest of the protocol:
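ADP-Glo luminescence read-out of ADP production, with IC50 taken as the concentration halving JAK1 activity relative to control. Enzyme was incubated 40 min at 30 °C with compound, IRS-itide (40 ng/mL) and ATP (250 uM), concentrations as prepared in pH 7.5 Tris-HCl/MgCl2/BSA/DTT buffer.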
For `O=C(NCC(F)(F)F)c1ccc(-c2cc(NC(=O)C3CC3)nc3[nH]ccc23)cc1` [Example 524, 4-(6-(cyclopropanecarboxamido)-1H-pyrrolo[2,3-b]pyridin-4-yl)-N-(2,2,2-trifluoroethyl)benzamide], the IC50 is less than 20 nM.

Regarding `CN(C)S(=O)(=O)N1CCN(c2cc(NC(=O)C3CC3)nc3[nH]ccc23)CC1` [Example 674, N-(4-(4-(N,N-dimethylsulfamoyl)piperazin-1-yl)-1H-pyrrolo[2,3-b]pyridin-6-yl)cyclopropanecarboxamide], the half-inhibitory concentration (IC50) was more than 200 nM.

Regarding `O=C(Nc1cc(-c2ccc(NS(=O)(=O)c3ccc(Br)cc3F)cc2)c2cc[nH]c2n1)C1CC1` [Example 32, N-(4-(4-((4-bromo-2-fluorophenyl)sulfonamido)phenyl)-1H-pyrrolo[2,3-b]pyridin-6-yl)cyclopropanecarboxamide], the half-maximal inhibitory concentration (IC50) was 20 to 200 nM.

As for `O=C(Nc1cc(C2=CCC(NC(=O)C3CCCC3)CC2)c2cc[nH]c2n1)C1CC1` (centres unmarked) [Example 245, N-(4-(6-(cyclopropanecarboxamido)-1H-pyrrolo[2,3-b]pyridin-4-yl)cyclohex-3-en-1-yl)cyclopentanecarboxamide], the concentration for half-maximal inhibition (IC50) lay in the range of 20 to 200 nM.

As to `CCCS(=O)(=O)Nc1cc(F)c(-c2cc(NC(=O)C3CC3)nc3[nH]ccc23)cc1F` [Example 84, N-(4-(2,5-difluoro-4-(propylsulfonamido)phenyl)-1H-pyrrolo[2,3-b]pyridin-6-yl)cyclopropanecarboxamide], the IC50 is less than 20 nM.

In the case of `Cc1cc(NS(=O)(=O)CC2(CC#N)CC2)ccc1-c1cc(NC(=O)C2CC2)nc2[nH]ccc12` [Example 103, N-(4-(4-(((1-(cyanomethyl)cyclopropyl)methyl)sulfonamido)-2-methylphenyl)-1H-pyrrolo[2,3-b]pyridin-6-yl)cyclopropanecarboxamide], the IC50 was less than 20 nM.

Consider `O=C(Nc1cc(-c2ccc(NS(=O)(=O)c3cccc(Cl)c3)cc2)c2cc[nH]c2n1)C1CC1` [Example 26, N-(4-(4-((3-chlorophenyl)sulfonamido)phenyl)-1H-pyrrolo[2,3-b]pyridin-6-yl)cyclopropanecarboxamide], for which the 50% inhibitory concentration (IC50) lay within 20 to 200 nM.

For `N#CCCCC(=O)N1CC=C(c2cc(NC(=O)C3CC3)nc3[nH]ccc23)CC1` [Example 265, N-(4-(1-(4-cyanobutanoyl)-1,2,3,6-tetrahydropyridin-4-yl)-1H-pyrrolo[2,3-b]pyridin-6-yl)cyclopropanecarboxamide], the IC50 was less than 20 nM.

With `O=C(Nc1cc(-c2ccc(CC(=O)N3CCS(=O)(=O)CC3)cc2)c2cc[nH]c2n1)C1CC1` [Example 535, N-(4-(4-(2-(1,1-dioxidothiomorpholino)-2-oxoethyl)phenyl)-1H-pyrrolo[2,3-b]pyridin-6-yl)cyclopropanecarboxamide], the IC50 lay within 20 to 200 nM.

Consider `N#CCC1(CS(=O)(=O)N2C3CCC2CN(c2cc(NC(=O)C4CC4)nc4[nH]ccc24)C3)CC1` [Example 665, N-(4-(8-(((1-(cyanomethyl)cyclopropyl)methyl)sulfonyl)-3,8-diazabicyclo[3.2.1]octan-3-yl)-1H-pyrrolo[2,3-b]pyridin-6-yl)cyclopropanecarboxamide], for which the IC50 was in the range of 20 to 200 nM.

`CC1CN(C(=O)C(C#N)Cc2ccc(F)cc2)CC=C1c1cc(NC(=O)C2CC2)nc2[nH]ccc12` (centres unmarked) [Example 359, N-(4-(1-(2-cyano-3-(4-fluorophenyl)propanoyl)-3-methyl-1,2,3,6-tetrahydropyridin-4-yl)-1H-pyrrolo[2,3-b]pyridin-6-yl)cyclopropanecarboxamide]: the IC50 fell in the range of 20 to 200 nM.

Take `Cc1c(NS(=O)(=O)C2CC2)ccc(-c2cc(NC(=O)C3CC3)nc3[nH]ccc23)c1C` [Example 133, N-(4-(4-(cyclopropanesulfonamido)-2,3-dimethylphenyl)-1H-pyrrolo[2,3-b]pyridin-6-yl)cyclopropanecarboxamide]: the IC50 was less than 20 nM.

Consider `CCS(=O)(=O)N1CC(CC#N)(N2C3CCC2CN(c2cc(NC(=O)C4CC4)nc4[nH]ccc24)C3)C1` [Example 701, N-(4-(8-(3-(cyanomethyl)-1-(ethylsulfonyl)azetidin-3-yl)-3,8-diazabicyclo[3.2.1]octan-3-yl)-1H-pyrrolo[2,3-b]pyridin-6-yl)cyclopropanecarboxamide], for which the 50% inhibitory concentration (IC50) was more than 200 nM.

Consider `C[C@@H]1CN(C(=O)c2ccnc(F)c2)CC=C1c1cc(NC(=O)C2CC2)nc2[nH]ccc12` [Example 395, (S)—N-(4-(1-(2-fluoroisonicotinoyl)-3-methyl-1,2,3,6-tetrahydropyridin-4-yl)-1H-pyrrolo[2,3-b]pyridin-6-yl)cyclopropanecarboxamide], for which the half-maximal inhibitory concentration (IC50) is less than 20 nM.

For `O=C(NCc1ccc(-c2cc(NC(=O)C3CC3)nc3[nH]ccc23)cc1)NCC(F)(F)F` [Example 581, N-(4-(4-((3-(2,2,2-trifluoroethyl)ureido)methyl)phenyl)-1H-pyrrolo[2,3-b]pyridin-6-yl)cyclopropanecarboxamide], the IC50 was 20 to 200 nM.

As for `CCS(=O)(=O)Nc1ccc(-c2nc(NC(=O)C3CC3)nc3[nH]cnc23)cc1` [Example 209, N-(6-(4-(ethylsulfonamido)phenyl)-9H-purin-2-yl)cyclopropanecarboxamide], the half-maximal inhibitory concentration (IC50) is more than 200 nM.

`O=C(Nc1nc(-c2ccc(NS(=O)(=O)CCCC(F)(F)F)cc2)c2nc[nH]c2n1)C1CC1` [Example 211, N-(6-(4-((4,4,4-trifluorobutyl)sulfonamido)phenyl)-9H-purin-2-yl)cyclopropanecarboxamide]: the IC50 was more than 200 nM.

As to `N#CC1(CS(=O)(=O)Nc2ccc(-c3cc(NC(=O)C4CC4)nc4[nH]ccc34)cc2)CC1` [Example 88, N-(4-(4-(((1-cyanocyclopropyl)methyl)sulfonamido)phenyl)-1H-pyrrolo[2,3-b]pyridin-6-yl)cyclopropanecarboxamide], the half-inhibitory concentration (IC50) was less than 20 nM.

`N#CCC(=O)N1CCC=C(c2cc(NC(=O)C3CC3)nc3[nH]ccc23)C1` [Example 420, N-(4-(1-(2-cyanoacetyl)-1,2,5,6-tetrahydropyridin-3-yl)-1H-pyrrolo[2,3-b]pyridin-6-yl)cyclopropanecarboxamide]: the IC50 lay within 20 to 200 nM.

Regarding `N#CCC(=O)N1CC2CCC(C1)N2c1cc(NC(=O)C2CC2)nc2[nH]ccc12` [Example 678, N-(4-(3-(2-cyanoacetyl)-3,8-diazabicyclo[3.2.1]octan-8-yl)-1H-pyrrolo[2,3-b]pyridin-6-yl)cyclopropanecarboxamide], the concentration for half-maximal inhibition (IC50) was in the range of 20 to 200 nM.

As for `CNS(=O)(=O)Cc1ccc(-c2cc(NC(=O)C3CC3)nc3[nH]ccc23)cc1` [Example 533, N-(4-(4-((N-methylsulfamoyl)methyl)phenyl)-1H-pyrrolo[2,3-b]pyridin-6-yl)cyclopropanecarboxamide], the 50% inhibitory concentration (IC50) fell in the range of 20 to 200 nM.

As to `O=C(Nc1cc(-c2ccc(NS(=O)(=O)c3ccc(F)cc3)cc2)c2cc[nH]c2n1)C1CC1` [Example 13, N-(4-(4-((4-fluorophenyl)sulfonamido)phenyl)-1H-pyrrolo[2,3-b]pyridin-6-yl)cyclopropanecarboxamide], the IC50 was less than 20 nM.

Take `CC(C)CS(=O)(=O)Nc1ccc(-c2cc(NC(=O)C3CC3)nc3[nH]ccc23)cc1` [Example 43, N-(4-(4-((2-methylpropyl)sulfonamido)phenyl)-1H-pyrrolo[2,3-b]pyridin-6-yl)cyclopropanecarboxamide]: the concentration for half-maximal inhibition (IC50) was less than 20 nM.

As for `O=C(Nc1cc(-c2cnn(Cc3ccccc3)c2)c2cc[nH]c2n1)C1CC1` [Example 479, N-(4-(1-benzyl-1H-pyrazol-4-yl)-1H-pyrrolo[2,3-b]pyridin-6-yl)cyclopropanecarboxamide], the 50% inhibitory concentration (IC50) is 20 to 200 nM.

As for `N#CCC1(CS(=O)(=O)NC2CC=C(c3cc(NC(=O)C4CC4)nc4[nH]ccc34)CC2)CC1` (centres unmarked) [Example 156, N-(4-(4-(((1-(cyanomethyl)cyclopropyl)methyl)sulfonamido)cyclohex-1-en-1-yl)-1H-pyrrolo[2,3-b]pyridin-6-yl)cyclopropanecarboxamide], the half-maximal inhibitory concentration (IC50) was less than 20 nM.

Regarding `N#Cc1ccc(S(=O)(=O)Nc2ccc(-c3cc(NC(=O)C4CC4)nc4[nH]ccc34)cc2)cn1` [Example 40, N-(4-(4-((6-cyanopyridine)-3-sulfonamido)phenyl)-1H-pyrrolo[2,3-b]pyridin-6-yl)cyclopropanecarboxamide], the IC50 is 20 to 200 nM.

Consider `N#CC1(CS(=O)(=O)Nc2ccc(-c3cc(NC(=O)C4CC4)nc4[nH]ccc34)c(C(=O)O)c2)CC1` [Example 143], for which the IC50 is more than 200 nM.

As for `O=C(Nc1cc(-c2ccc(NS(=O)(=O)C3CS(=O)(=O)C3)cc2)c2cc[nH]c2n1)C1CC1` [Example 11, N-(4-(4-((1,1-dioxidothietane)-3-sulfonamido)phenyl)-1H-pyrrolo[2,3-b]pyridin-6-yl)cyclopropanecarboxamide], the half-inhibitory concentration (IC50) was less than 20 nM.

For `CCS(=O)(=O)Nc1ccc(-c2cc(NC(=O)C3CC3)nc3c2ccn3C)cc1F` [Example 60, N-(4-(4-(ethylsulfonamido)-3-fluorophenyl)-1-methyl-1H-pyrrolo[2,3-b]pyridin-6-yl)cyclopropanecarboxamide], the 50% inhibitory concentration (IC50) is more than 200 nM.

Consider `N#CCC1(CS(=O)(=O)Nc2cc(F)c(-c3cc(NC(=O)C4CC4)nc4[nH]ccc34)cc2F)CC1` [Example 106, N-(4-(4-(((1-(cyanomethyl)cyclopropyl)methyl)sulfonamido)-2,5-difluorophenyl)-1H-pyrrolo[2,3-b]pyridin-6-yl)cyclopropanecarboxamide], for which the IC50 is less than 20 nM.

`Cn1cc(S(=O)(=O)Nc2ccc(-c3nc(NC(=O)C4CC4)nc4[nH]ccc34)cc2)cn1` [Example 199, N-(4-(4-((1-methyl-1H-pyrazole)-4-sulfonamido)phenyl)-7H-pyrrolo[2,3-d]pyrimidin-2-yl)cyclopropanecarboxamide]: the IC50 is more than 200 nM.

Take `N#CC1(CC(=O)Nc2ccc(-c3cc(NC(=O)C4CC4)nc4[nH]ccc34)cc2)CC1` [Example 241, N-(4-(4-(2-(1-cyanocyclopropyl)acetamido)phenyl)-1H-pyrrolo[2,3-b]pyridin-6-yl)cyclopropanecarboxamide]: the concentration for half-maximal inhibition (IC50) fell in the range of 20 to 200 nM.
